In PMC4949465, “Comparative chemical array screening for p38γ/δ MAPK inhibitors using a single gatekeeper residue difference between p38α/β and p38γ/δ” (Scientific Reports, 2016):
Values joined by “and” are separate entries in the source; they are usually repeats but may differ in a detail not shown here. Equal entries are not always repeated.

What was measured:
GST-p38αT106M = biological target: T1, GST-p38αT106M (Homo sapiens, UniProt Q16539, T106M); assay: In vitro kinase assay, GST-ATF2 substrate, [γ-32P]ATP; type: biochemical
T1 construct: made in house
Procedure: (§1) Bacterially produced GST-p38α and GST-p38αT106M were used for the kinase assay. GST-ATF2 (1–109)[34] was used as a substrate. The assay conditions used have been previously described. […] DMSO (1 μL) was used instead of compound as a negative control. Then, the mixture was combined with the solution containing 1 μg substrate protein, 185 kBq [γ-^32P]ATP and 20 μΜ ATP to generate a 15 μL reaction mixture and incubated for 30 min at 30 °C. The reaction was terminated by adding 7.5 μL of 3 × SDS sample buffer and boiled for 5 min. Phosphorylated substrate protein was then separated by 12.5% SDS- polyacrylamide gel electrophoresis and visualized by autoradiography.

GST-p38α = biological target: T2, GST-p38α (Homo sapiens, UniProt Q16539); assay: as above; type: biochemical; conditions: Fig. 2C, SU-002 0.06-7.6 μM
T2 construct: made in house
Procedure: as §1

endogenous p38γ = biological target: T3, endogenous p38γ (Homo sapiens, UniProt P53778); assay: Endogenous p38γ auto-phosphorylation in HEK293T cells, western blot; type: cell-based; conditions: 10 μM, 0.2 M NaCl stimulation, Fig. 6
T3 construct: endogenous in cells; host or cells: HEK293T
T3 sequence (P53778 1-367): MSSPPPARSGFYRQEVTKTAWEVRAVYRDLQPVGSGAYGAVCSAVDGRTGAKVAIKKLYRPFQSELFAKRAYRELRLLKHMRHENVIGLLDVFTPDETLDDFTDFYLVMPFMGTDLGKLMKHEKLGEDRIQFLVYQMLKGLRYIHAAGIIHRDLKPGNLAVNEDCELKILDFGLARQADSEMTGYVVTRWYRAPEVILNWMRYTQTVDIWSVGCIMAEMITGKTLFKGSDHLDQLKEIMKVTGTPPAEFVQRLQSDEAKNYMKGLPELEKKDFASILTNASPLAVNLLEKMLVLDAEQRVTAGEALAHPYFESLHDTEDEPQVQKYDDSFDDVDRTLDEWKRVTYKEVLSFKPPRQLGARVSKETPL
Procedure: For the analyses with HEK293T cells, 1 × 10^5 cells were seeded into each well of a 48-well plate. The next day, 10 μM SU derivative or SB202190 was added 1 h prior to stimulation of the cells with 0.2 M NaCl. The cells were further grown in DMEM supplemented with 10% FBS for 20 min. Then, the cells were rinsed once with PBS and harvested in 1 × SDS sample buffer.

p38α = biological target: T4, p38α (Homo sapiens, UniProt Q16539); assay: KinaseProfiler quantitative kinase assay (Eurofins), MBP substrate; type: biochemical; conditions: ATP at Km 90 µM, means of duplicate determinations
T4 construct: purchased Eurofins Pharma Discovery Services UK Limited (KinaseProfiler service)
Procedure: (§2) SU-002 derivatives (SU-001, 003, 004, 005, and 006, shown in Fig. 3A) were synthesized and the inhibitory activities of SU-002 and its derivatives against p38αT106M were tested. […] We then conducted quantitative kinase assay analyses including IC50 using the KinaseProfiler service of Eurofins Pharma Discovery Services. MBP was used as a substrate for all tested p38 isoforms: p38α, p38αT106M, p38γ, and p38δ. All p38 isoforms used were activated using a constitutively active mutant of MKK6. […] Next, we examined their effects in HeLa cells. […] To verify the specificity of SU-005 for p38δ, a FLAG-tagged p38δM107T was constructed and tested in a similar manner.
(§3) Quantitative kinase assay analyses including IC50 were conducted using the KinaseProfiler service of Eurofins Pharma Discovery Services UK Limited.

p38αT106M = biological target: T5, p38αT106M (Homo sapiens, UniProt Q16539, T106M); assay: as above; type: biochemical; conditions: ATP at Km 70 µM, means of duplicate determinations
T5 construct: purchased Eurofins Pharma Discovery Services UK Limited (KinaseProfiler service)
Procedure: as §2, §3

p38δ = biological target: T6, p38δ (Homo sapiens, UniProt O15264); assay: as above; type: biochemical; conditions: ATP at Km 15 µM, means of duplicate determinations
T6 construct: purchased Eurofins Pharma Discovery Services UK Limited (KinaseProfiler service)
T6 sequence (O15264 1-365): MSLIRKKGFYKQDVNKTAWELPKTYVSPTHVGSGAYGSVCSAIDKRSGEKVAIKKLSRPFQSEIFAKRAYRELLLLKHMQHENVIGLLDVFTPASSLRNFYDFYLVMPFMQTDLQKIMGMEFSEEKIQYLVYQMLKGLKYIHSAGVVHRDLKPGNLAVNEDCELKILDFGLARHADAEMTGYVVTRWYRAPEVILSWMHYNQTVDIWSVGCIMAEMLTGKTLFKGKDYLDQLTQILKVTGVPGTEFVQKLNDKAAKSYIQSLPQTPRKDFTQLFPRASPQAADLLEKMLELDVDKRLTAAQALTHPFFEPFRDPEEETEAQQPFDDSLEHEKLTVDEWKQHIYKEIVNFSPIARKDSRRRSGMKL
Procedure: as §2, §3

GST-p38αT106M mutant = biological target: T7, GST-p38αT106M mutant (Homo sapiens, UniProt Q16539, T106M); assay: Comparative chemical array screening, binding to GST-p38αT106M; conditions: Table S2
T7 construct: made in house; host or cells: bacteria (stated for the kinase assay)
Procedure: Photo-cross-linked chemical arrays were prepared by the previously described method[33] utilizing a photoaffinity proline linker that had both PEG and a polyproline helix as spacers.
The slides were then washed with TBS-T buffer (10 mM Tris/HCl, 150 mM NaCl, 0.05% Tween-20, pH 8.0) three times for 5 min each and centrifuged (480 × g, 1 min) to dry. […] After washing with TBS-T buffer, the slides were incubated with an anti-GST antibody (30 μg/mL) in binding buffer at 30 °C for 1 h. This incubation was followed by another wash step and incubation with a secondary antibody (goat anti-rabbit IgG, Cy5 conjugate, 50 μg/mL in binding buffer) at 30 °C for 1 h. After the final wash step and spin dry, the slides were scanned at 635 nm on a GenePix 4300A microarray scanner (Molecular Devices). The fluorescence intensity (I) of each compound spot was quantified with GenePix 5.0 software with local background correction. Then, the difference (ΔΙ) of the fluorescence intensities between the GST-p38αT106M and GST-p38α-treated arrays was calculated by subtracting Ip38α from IT106M (ΔI = IT106M - Ip38α) for each spot. The mean and standard deviation (SD) of ΔI for all spots on the array were also calculated. The ΔΙ score of each spot was calculated using the following formula; ΔΙ score = (ΔI - mean)/SD. The compounds with a ΔΙ score larger than 2 were determined to be hit compounds for GST-p38αT106M. […]

p38γ = biological target: T8, p38γ (Homo sapiens, UniProt P53778); assay: KinaseProfiler quantitative kinase assay (Eurofins), MBP substrate; type: biochemical; set-up: purchased Eurofins Pharma Discovery Services UK Limited (KinaseProfiler service); conditions: ATP at Km 15 µM, means of duplicate determinations
T8 sequence (P53778 1-367): T3 sequence (P53778 1-367)
Procedure: as §2, §3

MUC5AC = system: MUC5AC; set-up: method as in PMID 23187130; conditions: airway epithelial cells; BIRB796 at high concentration; cited from earlier work

T7 sequence (Q16539 whole entry T106M): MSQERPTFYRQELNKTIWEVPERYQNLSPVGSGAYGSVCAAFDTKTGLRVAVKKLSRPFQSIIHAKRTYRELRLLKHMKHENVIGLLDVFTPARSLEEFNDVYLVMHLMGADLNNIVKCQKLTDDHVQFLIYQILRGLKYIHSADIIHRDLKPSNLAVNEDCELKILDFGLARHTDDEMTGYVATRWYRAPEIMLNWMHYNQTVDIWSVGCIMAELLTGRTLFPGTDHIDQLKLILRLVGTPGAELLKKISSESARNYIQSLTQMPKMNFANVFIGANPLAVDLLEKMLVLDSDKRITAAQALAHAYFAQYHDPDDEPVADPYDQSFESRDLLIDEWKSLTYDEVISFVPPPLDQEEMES
T1 sequence (Q16539 whole entry T106M): as above
T5 sequence (Q16539 whole entry T106M): as above
T4 sequence (Q16539 whole entry): as the sequence (Q16539 whole entry T106M) above, with M106T counted along it
T2 sequence (Q16539 whole entry): as the sequence (Q16539 whole entry T106M) above, with M106T counted along it

CCCCCCCC(=O)Nc1nnc(Sc2ccnc3cc(Cl)ccc23)s1 [SU-002]
inhibition of p38αT106M kinase activity (GST-p38αT106M; 1 μM, Fig. 3B,C): clearly impaired | inhibition of p38αT106M kinase activity (GST-p38αT106M; Fig. 2C,D, SU-002 0.012-7.6 μM): inhibited the kinase activity of p38αT106M in a dose-dependent manner | inhibition of p38α kinase activity (GST-p38α): this inhibition was not seen | inhibition of endogenous p38γ phosphorylation (endogenous p38γ): similarly potent inhibitory activities | %kinase activity relative to control, p38α (p38α; 1 µM): 88 ± 6% | %kinase activity relative to control, p38α (p38α; 10 µM): 94 ± 5% | %kinase activity relative to control, p38αT106M (p38αT106M; 1 µM): 83 ± 7% | %kinase activity relative to control, p38αT106M (p38αT106M; 10 µM): 72 ± 2% | %kinase activity relative to control, p38δ (p38δ; 1 µM): 90 ± 0% | %kinase activity relative to control, p38δ (p38δ; 10 µM): 96 ± 0% | IT106M score (GST-p38αT106M mutant; I score = (I − Imean)/ISD, duplicate spots): 4.80 and 3.66 | ΔI score (GST-p38αT106M mutant; ΔI = IT106M – Ip38α, ΔI score = (ΔI − ΔImean)/ΔISD, hit if larger than 2): 6.30 and 4.89 | %kinase activity relative to control, p38γ (p38γ; 1 µM): 92 ± 5% | %kinase activity relative to control, p38γ (p38γ; 10 µM): 88 ± 2%

Cc1ccc(-n2nc(C(C)(C)C)cc2NC(=O)Nc2ccc(OCCN3CCOCC3)c3ccccc23)cc1 [BIRB796]
inhibition of production of MUC5AC mRNA and protein (MUC5AC): markedly inhibited

CCCCCC(=O)Nc1nnc(Sc2ccnc3cc(Cl)ccc23)s1 [SU-004]
inhibition of endogenous p38γ phosphorylation (endogenous p38γ): no or weak inhibitory activity | %kinase activity relative to control, p38α (p38α; 1 µM): 91 ± 2% | %kinase activity relative to control, p38α (p38α; 10 µM): 86 ± 3% | %kinase activity relative to control, p38αT106M (p38αT106M; 1 µM): 99 ± 0% | %kinase activity relative to control, p38αT106M (p38αT106M; 10 µM): 94 ± 3% | %kinase activity relative to control, p38δ (p38δ; 1 µM): 100 ± 4% | %kinase activity relative to control, p38δ (p38δ; 10 µM): 97 ± 3% | %kinase activity relative to control, p38γ (p38γ; 1 µM): 111 ± 4% | %kinase activity relative to control, p38γ (p38γ; 10 µM): 104 ± 8%

CC(=O)Nc1nnc(Sc2ccnc3cc(Cl)ccc23)s1 [SU-003]
inhibition of endogenous p38γ phosphorylation (endogenous p38γ): no or weak inhibitory activity | %kinase activity relative to control, p38α (p38α; 1 µM): 92 ± 8% | %kinase activity relative to control, p38α (p38α; 10 µM): 94 ± 6% | %kinase activity relative to control, p38αT106M (p38αT106M; 1 µM): 96 ± 4% | %kinase activity relative to control, p38αT106M (p38αT106M; 10 µM): 94 ± 1% | %kinase activity relative to control, p38δ (p38δ; 1 µM): 99 ± 2% | %kinase activity relative to control, p38δ (p38δ; 10 µM): 81 ± 1% | %kinase activity relative to control, p38γ (p38γ; 1 µM): 112 ± 3% | %kinase activity relative to control, p38γ (p38γ; 10 µM): 104 ± 6%

Nc1nnc(Sc2ccnc3cc(Cl)ccc23)s1 [SU-001]
inhibition of p38αT106M kinase activity (GST-p38αT106M; 1 μM, Fig. 3B,C): did not inhibit | %kinase activity relative to control, p38α (p38α; 1 µM): 91 ± 13% | %kinase activity relative to control, p38α (p38α; 10 µM): 72 ± 2% | %kinase activity relative to control, p38αT106M (p38αT106M; 1 µM): 99 ± 0% | %kinase activity relative to control, p38αT106M (p38αT106M; 10 µM): 91 ± 6% | %kinase activity relative to control, p38δ (p38δ; 1 µM): 94 ± 2% | %kinase activity relative to control, p38δ (p38δ; 10 µM): 92 ± 1% | %kinase activity relative to control, p38γ (p38γ; 1 µM): 103 ± 8% | %kinase activity relative to control, p38γ (p38γ; 10 µM): 95 ± 2%
